# From the supplement of paper PMC10307832
# Tests used:
# Test in all cases: relative viability (nuclei count vs DMSO), 5 days (fraction); higher = more cells survive
# NCI-H358 = tested on: NCI-H358
# Method in brief: (§1)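 Relative viability was taken as the ratio of nuclei in treated wells to nuclei in vehicle wells. Lung cancer cell lines in 1536-well plates received compounds by pin tool one day after seeding, either one drug alone or a fixed anchor-drug dose plus five library-drug doses (not always all listed) in √10 steps. Nuclei were counted on 4× images after 5 days of treatment, and values are medians of duplicate plates.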
# EPLC-272H = tested on: EPLC-272H
# Method in brief: as §1
# UMC-11 = tested on: UMC-11
# Method in brief: as §1
# NCI-H1792 = tested on: NCI-H1792
# Method in brief: as §1
# NCI-H1915 = tested on: NCI-H1915
# Method in brief: as §1
# HCC-366 = tested on: HCC-366
# Method in brief: as §1
# LXF-289 = tested on: LXF-289
# Method in brief: as §1
# LC-2-ad = tested on: LC-2-ad
# Method in brief: as §1
# SW 900 = tested on: SW 900
# Method in brief: as §1
# SK-LU-1 = tested on: SK-LU-1
# Method in brief: as §1
# HOP-62 = tested on: HOP-62
# Method in brief: as §1
# HCC-78 = tested on: HCC-78
# Method in brief: as §1
# NCI-H1666 = tested on: NCI-H1666
# Method in brief: as §1
# NCI-H2170 = tested on: NCI-H2170
# Method in brief: as §1
# LU99A = tested on: LU99A
# Method in brief: as §1
# NCI-H1793 = tested on: NCI-H1793
# Method in brief: as §1
# A-427 = tested on: A-427
# Method in brief: as §1
# NCI-H2009 = tested on: NCI-H2009
# Method in brief: as §1
# NCI-H1944 = tested on: NCI-H1944
# Method in brief: as §1
# COR-L 105 = tested on: COR-L 105
# Method in brief: as §1
# NCI-H2085 = tested on: NCI-H2085
# Method in brief: as §1
# NCI-H460 = tested on: NCI-H460
# Method in brief: as §1
structure (smiles),measurement,setting,value
COc1cc2nccc(Oc3ccc(NC(=O)Nc4cc(C)on4)c(Cl)c3)c2cc1OC [Tivozanib] + CC(=O)Nc1cccc(-n2c(=O)n(C3CC3)c(=O)c3c(Nc4ccc(I)cc4F)n(C)c(=O)c(C)c32)c1 [Trametinib] (partner 0.02 µM),relative viability,NCI-H358; first compound 0.005 µM,0.124
same,relative viability,NCI-H358; first compound 0.01581 µM,0.153
same,relative viability,NCI-H358; first compound 0.05 µM,0.161
same,relative viability,NCI-H358; first compound 0.1581 µM,0.108
same,relative viability,NCI-H358; first compound 0.5 µM,0.144
same,relative viability,EPLC-272H; first compound 0.005 µM,0.243
same,relative viability,EPLC-272H; first compound 0.01581 µM,0.277
same,relative viability,EPLC-272H; first compound 0.05 µM,0.27
same,relative viability,EPLC-272H; first compound 0.1581 µM,0.235
same,relative viability,EPLC-272H; first compound 0.5 µM,0.246
same,relative viability,UMC-11; first compound 0.005 µM,0.66
same,relative viability,UMC-11; first compound 0.01581 µM,0.67
same,relative viability,UMC-11; first compound 0.05 µM,0.754
same,relative viability,UMC-11; first compound 0.1581 µM,0.533
same,relative viability,UMC-11; first compound 0.5 µM,0.529
same,relative viability,NCI-H1792; first compound 0.005 µM,0.401
same,relative viability,NCI-H1792; first compound 0.01581 µM,0.397
same,relative viability,NCI-H1792; first compound 0.05 µM,0.438
same,relative viability,NCI-H1792; first compound 0.5 µM,0.632
same,relative viability,NCI-H1915; first compound 0.005 µM,0.318
same,relative viability,NCI-H1915; first compound 0.01581 µM,0.305
same,relative viability,NCI-H1915; first compound 0.05 µM,0.3
same,relative viability,NCI-H1915; first compound 0.1581 µM,0.273
same,relative viability,NCI-H1915; first compound 0.5 µM,0.304
same,relative viability,HCC-366; first compound 0.005 µM,0.363
same,relative viability,HCC-366; first compound 0.01581 µM,0.349
same,relative viability,HCC-366; first compound 0.05 µM,0.341
same,relative viability,HCC-366; first compound 0.1581 µM,0.323
same,relative viability,HCC-366; first compound 0.5 µM,0.426
same,relative viability,LXF-289; first compound 0.005 µM,0.698
same,relative viability,LXF-289; first compound 0.01581 µM,0.674
same,relative viability,LXF-289; first compound 0.05 µM,0.629
same,relative viability,LXF-289; first compound 0.1581 µM,0.646
same,relative viability,LXF-289; first compound 0.5 µM,0.668
same,relative viability,LC-2-ad; first compound 0.005 µM,0.91
same,relative viability,LC-2-ad; first compound 0.01581 µM,0.849
same,relative viability,LC-2-ad; first compound 0.05 µM,0.888
same,relative viability,LC-2-ad; first compound 0.1581 µM,0.601
same,relative viability,LC-2-ad; first compound 0.5 µM,0.497
same,relative viability,SW 900; first compound 0.005 µM,0.692
same,relative viability,SW 900; first compound 0.01581 µM,1.18
same,relative viability,SW 900; first compound 0.05 µM,1.04
same,relative viability,SW 900; first compound 0.5 µM,0.829
same,relative viability,SK-LU-1; first compound 0.005 µM,0.508
same,relative viability,SK-LU-1; first compound 0.01581 µM,0.498
same,relative viability,SK-LU-1; first compound 0.05 µM,0.594
same,relative viability,SK-LU-1; first compound 0.1581 µM,0.3
same,relative viability,SK-LU-1; first compound 0.5 µM,0.503
same,relative viability,HOP-62; first compound 0.005 µM,0.343
same,relative viability,HOP-62; first compound 0.01581 µM,0.398
same,relative viability,HOP-62; first compound 0.05 µM,0.439
same,relative viability,HOP-62; first compound 0.1581 µM,0.377
same,relative viability,HOP-62; first compound 0.5 µM,0.502
same,relative viability,HCC-78; first compound 0.005 µM,0.788
same,relative viability,HCC-78; first compound 0.01581 µM,0.828
same,relative viability,HCC-78; first compound 0.05 µM,0.711
same,relative viability,HCC-78; first compound 0.1581 µM,0.859
same,relative viability,HCC-78; first compound 0.5 µM,0.537
same,relative viability,NCI-H1666; first compound 0.005 µM,0.839
same,relative viability,NCI-H1666; first compound 0.01581 µM,0.78
same,relative viability,NCI-H1666; first compound 0.05 µM,0.977
same,relative viability,NCI-H1666; first compound 0.1581 µM,0.922
same,relative viability,NCI-H1666; first compound 0.5 µM,0.862
same,relative viability,NCI-H2170; first compound 0.005 µM,0.827
same,relative viability,NCI-H2170; first compound 0.01581 µM,0.92
same,relative viability,NCI-H2170; first compound 0.05 µM,0.893
same,relative viability,NCI-H2170; first compound 0.5 µM,0.983
same,relative viability,LU99A; first compound 0.005 µM,0.626
same,relative viability,LU99A; first compound 0.01581 µM,0.496
same,relative viability,LU99A; first compound 0.05 µM,0.61
same,relative viability,LU99A; first compound 0.1581 µM,0.396
same,relative viability,LU99A; first compound 0.5 µM,0.563
same,relative viability,NCI-H1793; first compound 0.005 µM,0.305
same,relative viability,NCI-H1793; first compound 0.01581 µM,0.457
same,relative viability,NCI-H1793; first compound 0.05 µM,0.471
same,relative viability,NCI-H1793; first compound 0.5 µM,0.445
same,relative viability,A-427; first compound 0.005 µM,0.696
same,relative viability,A-427; first compound 0.01581 µM,0.718
same,relative viability,A-427; first compound 0.05 µM,0.758
same,relative viability,A-427; first compound 0.1581 µM,0.67
same,relative viability,A-427; first compound 0.5 µM,0.686
same,relative viability,NCI-H2009; first compound 0.005 µM,0.269
same,relative viability,NCI-H2009; first compound 0.01581 µM,0.323
same,relative viability,NCI-H2009; first compound 0.05 µM,0.295
same,relative viability,NCI-H2009; first compound 0.1581 µM,0.204
same,relative viability,NCI-H2009; first compound 0.5 µM,0.339
same,relative viability,NCI-H1944; first compound 0.005 µM,0.344
same,relative viability,NCI-H1944; first compound 0.01581 µM,0.453
same,relative viability,NCI-H1944; first compound 0.05 µM,0.399
same,relative viability,NCI-H1944; first compound 0.1581 µM,0.423
same,relative viability,NCI-H1944; first compound 0.5 µM,0.455
same,relative viability,COR-L 105; first compound 0.005 µM,0.417
same,relative viability,COR-L 105; first compound 0.01581 µM,0.451
same,relative viability,COR-L 105; first compound 0.05 µM,0.454
same,relative viability,COR-L 105; first compound 0.1581 µM,0.482
same,relative viability,COR-L 105; first compound 0.5 µM,0.494
same,relative viability,NCI-H2085; first compound 0.005 µM,0.51
same,relative viability,NCI-H2085; first compound 0.01581 µM,0.602
same,relative viability,NCI-H2085; first compound 0.05 µM,0.543
same,relative viability,NCI-H2085; first compound 0.1581 µM,0.437
same,relative viability,NCI-H2085; first compound 0.5 µM,0.511
same,relative viability,NCI-H460; first compound 0.005 µM,0.13
same,relative viability,NCI-H460; first compound 0.01581 µM,0.192
same,relative viability,NCI-H460; first compound 0.05 µM,0.254
same,relative viability,NCI-H460; first compound 0.1581 µM,0.13
same,relative viability,NCI-H460; first compound 0.5 µM,0.236
